Biological target: T1, human GPR40 (Homo sapiens, UniProt O14842)
T1 construct: expressed in transfected cells; host or cells: HEK cells stably expressing the aequorin reporter
Assay: Inositol Phosphate Turnover (IP1) Assay 2
Assay type: cell-based
Conditions: HEK cells stably expressing human GPR40; compound acoustically transferred; 60 minutes at 37 degrees
Procedure: Human and mouse GPR40 stable cell-lines were generated in CHO cells stably expressing NFAT BLA (Beta-lactamase). A human GPR40 stable cell-line was generated in HEK cells stably expressing the aequorin expressing reporter. The expression plasmids were transfected using lipofectamine (Life Technologies) following manufacturer's instructions. Stable cell-lines were generated following drug selection.
The assay is performed in 384-well format. HEK cells stably expressing human GPR40 are plated at 15,000 cells per well in growth medium (DMEM/10% fetal calf serum). Cell plates are then incubated 16 hours at 37 degrees in a 5% CO2 incubator.
Measurement of Inositol Phosphate Turnover (IP1) is performed using the CisBio IP-One kit (Part number 62IPAPEB). After the 16 hour incubation, the cells are washed with HEPES buffer and 10 ul of stimulation buffer (prepared as described in the kit) is added to each well. In a separate plate, compounds are diluted in DMSO (400-fold over the final concentration in the assay well) and 25 nl is acoustically transferred to the appropriate well in the assay cell plate. The plates were then incubated for 60 minutes at 37 degrees. 10 ul of detection buffer (also prepared as described in the IP-One kit) is added to each well and the plates are incubated for 60 minutes in the dark. The plates are then read in a Perkin Elmer EnVision or equivalent reader able to measure FRET. Fluorescent ratio of emission at 665 and 620 nm is then converted to IP1 concentration by back calculating from an IP1 standard curve prepared at the time of the assay.

T1 sequence (O14842 whole entry): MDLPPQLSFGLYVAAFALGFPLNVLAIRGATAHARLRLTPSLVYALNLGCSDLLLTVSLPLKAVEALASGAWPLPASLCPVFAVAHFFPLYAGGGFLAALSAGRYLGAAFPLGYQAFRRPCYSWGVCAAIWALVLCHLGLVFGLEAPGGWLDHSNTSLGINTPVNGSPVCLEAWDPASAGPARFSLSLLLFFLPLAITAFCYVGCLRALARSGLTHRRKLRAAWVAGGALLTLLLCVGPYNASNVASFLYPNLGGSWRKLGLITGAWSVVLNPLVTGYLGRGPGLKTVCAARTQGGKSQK

Row | EC50 | SMILES
1 | 0.5 nM | COc1ccc(F)c(-c2ccc([C@H]3Cc4cc([C@H](C5CC5)[C@H](C)C(=O)O)ccc4CO3)cc2)c1 [Example 22, (2S,3R)-3-cyclopropyl-3-((R)-3-(2′-fluoro-5′-methoxy-1,1′-biphenyl-4-yl)isochroman-6-yl)-2-methylpropanoic acid]
2 | 4.2 nM | COc1cc(-c2ccc([C@@H]3Cc4cc([C@H](C5CC5)[C@H](C)C(=O)O)ccc4CO3)c(F)c2)ccn1 [Example 38A, (2S,3R)-3-cyclopropyl-3-((S)-3-(2-fluoro-4-(2-methoxypyridin-4-yl)phenyl)isochroman-6-yl)-2-methylpropanoic acid]
3 | 24.5 nM | COc1cc(-c2ccc([C@H]3Cc4cc([C@H](C5CC5)[C@H](C)C(=O)O)ccc4CO3)c(F)c2)ccn1 [Example 38B, (2S,3R)-3-cyclopropyl-3-((R)-3-(2-fluoro-4-(2-methoxy-pyridin-4-yl)phenyl)isochroman-6-yl)-2-methylpropanoic acid]
4 | 54 nM | C[C@H](C(=O)O)[C@H](c1ccc2c(c1)CC(C1CCN(c3ncccc3C(F)(F)F)CC1)OC2)C1CC1 (stereo partly drawn) [Example 40, (2S,3R)-3-cyclopropyl-2-methyl-3-(3-(1-(3-(trifluoromethyl)pyridin-2-yl)piperidin-4-yl)isochroman-6-yl)propanoic acid]

Reference: patent US10662171B2, “Antidiabetic bicyclic compounds” (Merck Sharp & Dohme Corp., priority 2014, dated 2020)
